Laboratory results published in patent publication US10111822B2, “External dermal composition for anti-ageing and method for producing the same” (Hayashibara Co., Ltd., priority 2012, dated 2018).

Columns and labels:
Format in all cases: cell-based, human
Involucrin = test: Expression of proliferation marker protein involucrin in NHEK cells (Western); details: 5 days, control regarded as 50%
Procedure: (§1) Normal human epidermal keratinocytes from neonatal foreskin (NHEK cells) were prepared into 2.5×10^5 cells/mL with EpiLife medium, inoculated to 12-well plates in a volume of 1 mL/well, and cultured at 37° C. for one day under a 5% v/v CO2 condition. Thereafter, each supernatant was removed, and a medium, to which ascorbic acid 2-glucoside had been added to give a final concentration of 300 or 600 μM, was added to the resulting cells in a volume of 1 mL/well, followed by culturing the cells at 37° C. for two days under a 5% v/v CO2 condition. Another cell culture system, which had been similarly cultured in a medium free of ascorbic acid 2-glucoside, was provided as a control. The cells cultured with ascorbic acid 2-glucoside were further added with a medium supplemented with the same concentration of sodium salt of ascorbic acid 2-glucoside as that in the above medium in a volume of 1 mL/well, and cultured for another three days under the same conditions. […] Each of the resulting extract was centrifuged to collect a supernatant, and a part of which was subjected to protein quantification. […]

Filaggrin = test: Expression of proliferation marker protein filaggrin in NHEK cells (Western); details: 5 days, control regarded as 50%
Procedure: as §1

Dickkopf-1 (DKK1) = test: Production of DKK1 in NHDF cells (ELISA); details: for DKK1 Production level, First day: n=3, control 0.115 ± 0.012; for DKK1 Production level, Third day: n=3, control 0.217 ± 0.021
Procedure: NHDF Cells, which had been diluted with a culture medium to give a cell density of 1×10^4 cells/well, were inoculated to 96-well plates. At 24 hours after the inoculation, the supernatant in each well of the plates was removed, followed by adding ascorbic acid 2-glucoside to each well of the plates to give a final concentration of 0.5, 1, 2, 4, or 8 mM. As a control, a cell culture system with no addition of ascorbic acid 2-glucoside was provided. At the first and third days of culturing after the addition of ascorbic acid 2-glucoside, the supernatant in each well of the plates was collected and quantified (n=3) for DKK1 with “RayBio”, a product name of an ELISA for DKK1 assay, commercialized by RayBiotech Inc., Georgia, USA. Statistical analysis of the data was performed by t-test (see “Kiso-Tokeigaku (Basic Statistics) III Statistics of Natural Science”, page 187, 2008, edited by University of Tokyo Press).

## O=C1O[C@H]([C@@H](O)CO)C(O)=C1O[C@H]1O[C@H](CO)[C@@H](O)[C@H](O)[C@H]1O [ascorbic acid 2-glucoside, 2-O-α-D-glucosyl-L-ascorbic acid]
Involucrin; 300 μM, calibrated with α-Tubulin
  Relative expression level, Involucrin: 74%
Involucrin; 600 μM
  Relative expression level, Involucrin: 84%
Filaggrin; 300 μM
  Relative expression level, Filaggrin: 65%
Filaggrin; 600 μM
  Relative expression level, Filaggrin: 71%
Dickkopf-1 (DKK1); 0.5 mmol/L
  DKK1 Production level, First day: 0.117 ± 0.018 ng/mL
  DKK1 Production level, Third day: 0.317 ± 0.035 ng/mL
Dickkopf-1 (DKK1); 1 mmol/L
  DKK1 Production level, First day: 0.129 ± 0.017 ng/mL
  DKK1 Production level, Third day: 0.315 ± 0.042 ng/mL
Dickkopf-1 (DKK1); 2 mmol/L
  DKK1 Production level, First day: 0.149 ± 0.037 ng/mL
  DKK1 Production level, Third day: 0.339 ± 0.030 ng/mL
Dickkopf-1 (DKK1); 4 mmol/L
  DKK1 Production level, First day: 0.146 ± 0.016 ng/mL
  DKK1 Production level, Third day: 0.392 ± 0.014 ng/mL
Dickkopf-1 (DKK1); 8 mmol/L
  DKK1 Production level, First day: 0.179 ± 0.032 ng/mL
  DKK1 Production level, Third day: 0.413 ± 0.033 ng/mL
